The values below come from US20250361214A1, “TRIAZINE LIPIDS, LIPID SYNTHESIS, AND METHODS FOR INHIBITING CANONICAL NFKB TRANSCRIPTIONAL ACTIVITY” (University of Kentucky Research Foundation, priority 2022, published 2025).

Read-outs that look alike come from different tables or passages of the source. Bounds are passed on as bounds.

In data set [1] the test system is BALB/c mice. In words: Anti-hAAT antibody titers and IgG subclass ratios. The format is in vivo, mouse. Conditions: for increase of anti-hAAT titers: 25 μg hAAT protein administered with 1 mM lipid, day 14. The method, then:
To assess the presence of antibodies toward hAAT, 50 μL of hAAT (OriGene #RG202082) was plated at 2 μg/mL in carbonate buffer, pH 9.7, on a 96 well high binding plate (Greiner #82050-720) and incubated overnight at 4° C. The next day, the plates were washed with PBS containing 0.1% Tween-20 (PBS-T) and blocked for 1 hour with PBS-C at 37° C. After blocking, serum samples were plated at dilutions ranging from 1:100 to 1:1,000,000 and incubated at 37° C. for 2 hours. Secondary antibody (goat anti-mouse IgG HRP; Invitrogen #16066) diluted 1:2000 was applied for 30 min at 37° C., followed by a 30 min. incubation with tetramethylbenzidine (Rockland). Absorbance at 450 nm was recorded using a BioTek Synergy H1 microplate reader. Reciprocal endpoint titers were determined by plotting A450 values versus known dilutions, calculating the slope of that line, and dividing the slope by two times the average of the blank (no serum) wells.
Anti-hAAT IgG subclass ratios were assessed as described above, using a single 1:100 sample dilution and the following detection antibodies: goat anti-mouse IgG1-HRP (Abcam ab98693) at 1:10,000, IgG2a-HRP (Abcam ab98698) at 1:5000, IgG2b-HRP (Abcam ab98703) at 1:10,000 and IgG3 (Jackson 115-035-209) at 1:5000. Subclass ratios were calculated by dividing the absorbance of each subclass by that of IgG1 for each individual mouse.

Data set [2] can be described thus: Size and charge determination of nanoparticles (Zetasizer Nano ZS), Example 1. The format is physicochemical. The source says: Size and Charge Determination.
The test system of data set [3] is bone marrow derived macrophages. Kind of data set: in vitro. The format is cell-based. The method, then:
Cell Culture of Bone Marrow-Derived Macrophages. […] After 7 days, the cells were transferred to tissue culture 96 well plates (Corning) at a density of 100,000 in 20 μL of medium and allowed to settle overnight for subsequent assays.
Lactate Dehydrogenase Release (LDH) Toxicity Assay. For determination of cytotoxicity, mature bone marrow-derived macrophages (BMDM) were treated with 20 μL of the lipids (concentrations denoted in figure legend) diluted in 20 mM HEPES buffer, with HEPES buffer as negative control and 10% Triton X-100 as positive control. After 24 hours, the 96 well plates were centrifuged at 200×g for 5 minutes to remove debris and 100 μL of media was transferred to an untreated flat-bottom 96 well plate. Next, 100 μL of LDH reaction reagent purchased from Cayman Chemical (Ann Arbor, MI) was added to each and allowed to sit for 30 minutes at 37° C. Absorbance at 490 and 680 nm were measured using a BioTek Synergy H1 plate reader and the data were processed using Microsoft Excel. Mean values from triplicates are shown for one of two independent experiments.

Data set [4] concerns C57BL/6J mice. Kind of data set: In vivo toxicity of cationic lipid nanoparticles (ALT, IL-6, SCr, mortality). Conditions: 20 mM lipid, i.p., versus baseline.
Data set [5] is described as follows: Characterization of nanoparticles (size, zeta potential, DNA encapsulation), Example 2. The format is physicochemical. Particulars: LNPs made with the cationic lipid. Here is the method: The concentration of DNA in LNPs after dialysis was quantified using an AccuClear® Ultra High Sensitivity dsDNA Quantification Kit (Biotium #31027) and quantified on a BioTek Synergy H1 plate reader. Encapsulation efficiencies were determined by comparing the amount of DNA in the LNP solution vs. the DNA solution used to make them, after disrupting the LNPs with 0.5% Cl2E10 (Abcam #ab146563) and adjusting for volume differences (i.e.: excess volume added during dialysis and dilution volume during ethanol mixture).

Data set [6] concerns canonical NFKB. Kind of data set: THP-1-Blue NFKB reporter (SEAP) assay. The format is cell-based, human. Particulars: read-out: IC50, canonical NFKB inhibition.
Data set [7] relates to BALB/c mice. Kind of data set: In vivo hAAT transfection efficiency, serum ELISA and ALT. More on the design: species or system mouse. Conditions: LPs (50% cationic lipid, 50% DOPE), 10,000 ng hAAT plasmid DNA i.p., 72 hours. The method, then: To assess in vivo hAAT transfection efficiency, mice were administered 200 μL nanoparticles or PBS vehicle i.p. at the doses indicated in the figure legend. Seventy-two hours after injection the mice were bled again for assessment of ALT levels and hAAT expression. hAAT levels were determined via ELISA using serum diluted 1:1 in PBS containing 0.05% casein (PBS-C; 124250; Beantown Chemical), as described previously.^38
(In general: ELISA stands for enzyme-linked immunosorbent assay.)

Data set [8] in a line: Differential scanning calorimetry, transition temperature (Tm) of lipids. Conditions: liposomes of pure lipid, 10 mM in 20 mM HEPES, DSC. The format is physicochemical. The method, then:
Differential Scanning calorimetery. The transition temperature (Tm) of the lipids was determined using a multicell differential scanning calorimeter (TA Instruments). Liposomes were made with triazine lipids at a concentration of 10 mM in 20 mM HEPES buffer. These were heated to 60° C. and sonicated until the solution was translucent. For Tm determination, 250 μL of the liposome solution was transferred into reusable hastelloy ampoules while 250 μL of the HEPES solution was transferred to the third ampoule, leaving the reference ampoule empty. […] Data was collected over a range of 10-110° C. at a rate of 2° C. min-1 in a heat-cool-heat cycle. After the run was complete, the CpCalc 2.1 software package was used to convert the raw data into a molar heat capacity and the data from the second heating cycle were processed using Microsoft Excel.

Data set [9] is described as follows: Nanoparticle pKa via TNS fluorescence. The format is physicochemical. Particulars: liposomes, pH 2.5 to 12. The method, then: Determination of Nanoparticle pKa via TNS Fluorescence. […] The solutions were mixed by pipetting and incubated at room temperature for 10 minutes, before being analysed for fluorescence intensity using a 321 nm excitation and 445 nm emission wavelengths.

[10] abbreviates: liposomes, lipid:DOPE mixtures, lipoplexes, immunization liposomes (Table 2).
[11] abbreviates: nanoparticles of pure lipid (Table 1).
The mark [12] stands for this setting: nanoparticles of pure lipid, 1 mM, 25° C. (Table 1).
[13] abbreviates: zeta potential, nanoparticles of pure lipid (Table 1).
Where [14] appears, read: unstable nanoparticles of lipids 11 and 12, text.

As for `CCCCCCCCCCCCCCCCCC(=O)OC[C@@H](COP(=O)([O-])OCC[N+](C)(C)C)OC(=O)CCCCCCCCCCCCCCCCC` (stereo in doubt) [DSPC, 1,2-distearoyl-sn-glycero-3-phosphocholine, reference compound], in [1], the “increase of anti-hAAT titers” value was found to be 100 fold.
With `CCCCCCCCCCCCCC(=O)OC[C@H](COP(=O)([O-])OCC[N+](C)(C)C)OC(=O)CCCCCCCCCCCCC` [DMPC, 1,2-Dimyristoyl-sn-glycero-3-phosphocholine, reference compound], the PDI in data set [2] (Table 2) came to 0.39 ± 0.01. In addition, the Size in data set [2] (setting [10]) was determined as 277 ± 45 nm. The Charge in data set [2] (zeta potential (Table 2)) is −9 ± 0.3 mV. The LD50 in data set [3] (LDH activity, BMDMs incubated 24 hours, text of Example 3) was 969 µM; in data set [3] (LDH release, 24 hours (Table 2)) it was 969 µM.
With `CCCCCCCC/C=C\CCCCCCCC(=O)OCC(C[N+](C)(C)C)OC(=O)CCCCCCC/C=C\CCCCCCCC.[Cl-]` (stereo not shown) [DOTAP, 1,2-dioleoyl-3-trimethylammonium propane, reference compound], the “interleukin 6 (IL-6)” value in [4] is recorded as “neither these nor the IL-6 elevation in DOTAP-treated mice reached statistical significance”. Besides, in data set [1], the “increase of anti-hAAT titers” value amounted to 10 fold. In addition, the “anti-hAAT IgG titers” value in data set [1] (transgene delivery, 10 μg hAAT DNA, day 14, versus untreated mice) is “significantly higher anti-hAAT titers than untreated mice”. Moreover, in [1] (transgenic hAAT delivery with LPs), the “Th1/Th2 response (ratios of IgG2a, 2b, and 3 over IgG1)” value is reported as “balanced Th1/Th2 response”. The “encapsulation of DNA (general)” value in [5] is listed as 70-80%. Further, the IC50 in [6] (Homo sapiens, 24 h) came out at 28 µM. Besides, in [7], the “average hAAT levels in serum” value is on record as 3 ng/mL.
As for `CCCCCCCC/C=C\CCCCCCCCOCC(C[N+](C)(C)C)OCCCCCCCC/C=C\CCCCCCCC` (stereo not shown) [DOTMA, 1,2-di-O-octadecenyl-3-trimethylammonium propane, reference compound], the PDI in data set [2] (Table 2) is listed as 0.43 ± 0.06. Also, the Size in data set [2] (setting [10]) was 105 ± 2 nm. This molecule also yielded a Charge in data set [2] (zeta potential (Table 2)) of 70 ± 4 mV.
For the molecule `CCCCCCCCCCCCN(CCCCCCCCCCCC)c1nc(NCCC(=O)O)nc(NCCC(=O)O)n1` [Lipid 1], in data set [8], the Tm was < 10 °C. In data set [2] (setting [11]), this molecule came in with a PDI of 0.24 ± 0.02. In [2] (setting [12]), this molecule returned a Size of 124 ± 2 nm. The Charge in data set [2] (setting [13]) is −63 ± 4 mV. Also, the IC50 in [3] came to 1100 µM.
As a reminder, the pKa is the pH at which an ionisable group is half protonated. A high value points to a weaker acid or stronger base. Turning to `CCCCCCCCCCCCCCCCCCN(CCCCCCCCCCCCCCCCCC)c1nc(NCCCN)nc(NCCCN)n1` [Lipid 4], the Tm in data set [8] was determined as 33 °C. The molecule also displayed a PDI in [2] (setting [11]) of 0.28 ± 0.00. Also, in data set [2] (setting [12]), the Size amounted to 326 ± 1 nm. For the same molecule, the Charge in data set [2] (setting [13]) worked out at 63 ± 3 mV. Further, the pKa in data set [9] was found to be 5.59. In addition, the IC50 in [6] (THP-1-Blue cells stimulated with TNFα, 24 h lipid treatment) came out at 29 µM; in [3], 180 µM.
As to `CCCCCCCCCCCCN(CCCCCCCCCCCC)c1nc(NCCS)nc(NCCC(=O)O)n1` [Lipid 5], the Tm in [8] was < 10 °C. In addition, in data set [2] (setting [11]), the PDI stood at 0.40 ± 0.00. The molecule further returned a Size in data set [2] (setting [12]) of 87 ± 2 nm. Moreover, in data set [2] (setting [13]), the Charge was −73 ± 6 mV. Besides, the IC50 in [3] worked out at 679 µM.
As for `CCCCCCCCCCCCCCCCCCN(CCCCCCCCCCCCCCCCCC)c1nc(NCCS)nc(NCCC(=O)O)n1` [Lipid 6], the Tm in data set [8] is 40 °C. In data set [2] (setting [11]), this molecule had a PDI of 0.27 ± 0.01. The same molecule showed a Size in [2] (setting [12]) of 93 ± 2 nm. The Charge in data set [2] (setting [13]) is given as −71 ± 5 mV. Moreover, the IC50 in [3] amounted to 988 µM.
For the molecule `CCCCCCCCCCCCCCCCCCN(CCCCCCCCCCCCCCCCCC)c1nc(NCCCN(C)C)nc(NCCCN(C)C)n1` [Lipid 10], the Tm in data set [8] is 28 °C. This molecule showed a PDI in data set [2] (setting [11]) of 0.28 ± 0.01. This molecule also yielded a Size in data set [2] (setting [12]) of 186 ± 1 nm. The same molecule showed a Charge in data set [2] (setting [13]) of 47 ± 1 mV. Further, the IC50 in data set [3] (LDH release, 24 hours (Table 1), read-out: ID50 (the source's name)) was 261 µM.
For the molecule `CCCCCCCCCCCCN(CCCCCCCCCCCC)c1nc(NCCCN)nc(NCCC(=O)O)n1` [Lipid 11], the Tm in [8] was < 10 °C. Moreover, the PDI result was “Unstable Unstable” in data set [2] (setting [11]) and 0.98 in data set [2] (setting [14]). The Size entry in data set [2] (setting [12]) is reported as “Unstable Unstable”. The Charge in [2] (setting [13]) was 42 ± 5 mV. For the same molecule, in data set [3], the IC50 came out at 277 µM.
Regarding `CCCCCCCCCCCCCCCCCCN(CCCCCCCCCCCCCCCCCC)c1nc(NCCCN)nc(NCCC(=O)O)n1` [Lipid 12], the Tm in data set [8] was determined as 42 °C. The PDI entry was “Unstable Unstable” in data set [2] (setting [11]) and 0.51 in data set [2] (setting [14]). Also, the Size entry in [2] (setting [12]) is listed as “Unstable Unstable”. This molecule yielded a Charge in data set [2] (setting [13]) of 70 ± 5 mV. In data set [3], the IC50 amounted to 227 µM.
